Measured values from patent US20250380696A1, “METHOD FOR CONTROLLING UNDESIRED PLANTS AND PROMOTING GROWTH OF USEFUL PLANTS” (ISHIHARA SANGYO KAISHA, LTD., priority 2022, published 2025).
Where two headings read alike, the source gives them in different places.

System: Italian ryegrass (Lolium multiflorum)
Assay: (16) Herbicidal effect test (comparative test), pot, spray at 2.5 to 3.0 leaf stage
Format: in vivo
Conditions: Lolium multiflorum, read-out: Growth inhibition rate (%) Measured value
Source text: [formula] • X: growth inhibition rate when treated with α (g/ha) of compound A, • Y: growth inhibition rate when treated with β (g/ha) of compound B, • E: growth inhibition rate expected when treated with α (g/ha) of compound A and β (g/ha) of compound B (expected value).
Upland soil was put in a 1/1,000,000 hectare pot, and seeds of Italian ryegrass (Lolium multiflorum) were sown. When Italian ryegrass reached 2.5 to 3.0 leaf stage, a water-based suspension containing tiafenacil as the active ingredient, prepared by a conventional method for preparing a water-based suspension, a water-based suspension containing saflufenacil as the active ingredient (tradename: Sharpen, manufactured by BASF), a wettable powder containing fomesafen as the active ingredient, prepared by a conventional method for preparing a wettable powder, an emulsifiable concentrate containing fluthiacet-methyl as the active ingredient (tradename: Attackshot emulsifiable concentrate, manufactured by MARUWA Biochemical Co., Ltd.), a dry flowable containing carfentrazone-ethyl as the active ingredient (tradename: Task DF, manufactured by ISHIHARA SANGYO KAISHA, LTD.) or a water-based suspension containing pyraflufen-ethyl as the active ingredient (tradename: ECOPART flowable, manufactured by NIHON NOHYAKU CO., LTD.), and an emulsifiable concentrate containing S-metolachlor as the active ingredient (tradename: Dual Gold, manufactured by Syngenta) or a wettable powder containing metribuzin as the active ingredient (tradename: SENCOR wettable powder, manufactured by Bayer Crop Science), were diluted with water (in an amount corresponding to 200 liter per hectare) containing 0.5 vol % of an agricultural spreader (tradename: Destiny HC, manufactured by Winfield Solutions, LLC.) and sprayed by a small spray gun (model: W-101-132G, manufactured by ANEST IWATA Corporation). On the 4th day after spraying, the state of growth of the Italian ryegrass was visually observed, and the growth inhibition rate (%) was obtained in accordance with the evaluation standards described in the above (1) herbicidal effect test, and the results are shown in Table 16. Further, the expected value of the growth inhibition rate (%) was calculated in accordance with the Colby's formula described in the above (1) herbicidal effect test, and the results are also shown in Table 16.

[1] = Dose 12.5 g/ha, 4th day after spraying

CCOC(=O)C(Cl)Cc1cc(-n2nc(C)n(C(F)F)c2=O)c(F)cc1Cl (centres unmarked) [carfentrazone-ethyl]
inhibition at 12.5 g/ha: 12%

CS(=O)(=O)NC(=O)c1cc(Oc2ccc(C(F)(F)F)cc2Cl)ccc1[N+](=O)[O-] [fomesafen]
inhibition at 12.5 g/ha [1]: 8%

COC(=O)CSc1cc(/N=c2\sc(=O)n3n2CCCC3)c(F)cc1Cl [fluthiacet-methyl]
inhibition at 12.5 g/ha [1]: 12%

CCOC(=O)COc1cc(-c2nn(C)c(OC(F)F)c2Cl)c(F)cc1Cl [pyraflufen-ethyl]
inhibition at 12.5 g/ha: 25%

CC(C)N(C)S(=O)(=O)NC(=O)c1cc(-n2c(=O)cc(C(F)(F)F)n(C)c2=O)c(F)cc1Cl [saflufenacil]
inhibition at 12.5 g/ha [1]: 33%
